Where a SMILES comes first, the peptide text is derived from it. Where no end group is shown, it is not given here.
Assays:
K. pneumonia ATCC 700603 = type: cell-based, Klebsiella pneumonia; conditions: 10^5-10^6 CFU/ml in PBS pH 7.2, 3 h at 37°C, colony count, mean ± SD of three
Description: (§1) Ten strains obtained from the American Type Culture Collection (ATCC) and China Center of Industrial Culture Collection (CICC) were used for antibacterial and salt resistance assays. The Gram-positive strains were Staphyloccocus aureus ATCC 29213, Enterococcus faecalis ATCC 29212, Staphylococcus epidermidis ATCC 12228, Enterococcus faecium ATCC 6057, and Enterococcus faecium ATCC 19434. The Gram-negative strains were Escherichia coli ATCC 25922, Pseudomonas aeruginosa ATCC 15442, Klebsiella pneumonia ATCC 700603, Shigella flexneri CICC 21534, and Shigella sonnei CICC 21535. Fifteen E. coli clinical isolates were collected from 302 Military Hospital of China. The Gram-positive and Gram-negative strains were grown in Luria—Bertani (LB) and Mueller—Hinton (MH) media at 37°C, respectively.
(§2) The antibacterial activities of these peptides were determined in a modified microdilution assay as described previously. […] The five concentrations of the peptides were added to 200 μl of the bacterial suspension and then incubated at 37°C for 3 h before CFU numbers were determined. […] The cells were serially diluted in the same buffer, plated on Luria broth plates, and then incubated for 18 h at 37°C before the resulting colonies were counted. The bactericidal activity was expressed as the ratio of colonies counted to the number of colonies on a control plate. […]

S. flexneri CICC 21534 = type: cell-based, Shigella flexneri; conditions: 10^5-10^6 CFU/ml in PBS pH 7.2, 3 h at 37°C, colony count, mean ± SD of three
Description: as §1, §2

S. aureus ATCC 29213 = type: cell-based, Staphyloccocus aureus; conditions: 10^5-10^6 CFU/ml in PBS pH 7.2, 3 h at 37°C, colony count, mean ± SD of three
Description: as §1, §2

[1] = test system: S. epidermidis ATCC 12228; type: cell-based, Staphylococcus epidermidis; conditions: 10^5-10^6 CFU/ml in PBS pH 7.2, 3 h at 37°C, colony count, mean ± SD of three
Description: as §1, §2

S. sonnei CICC 21535 = type: cell-based, Shigella sonnei; conditions: 10^5-10^6 CFU/ml in PBS pH 7.2, 3 h at 37°C, colony count, mean ± SD of three
Description: as §1, §2

[2] = test system: four Gram-positive and five Gram-negative bacteria; experiment: Salt resistance assay, summary over the nine tested strains; type: cell-based; conditions: peptide 10 μg/ml (30 μg/ml K. pneumonia)
Procedure: (§3) The antibacterial activities of these peptides were determined in a modified microdilution assay as described previously. The strains were grown under aerobic condition in MH or LB broth at 37°C and then harvested in the exponential phase of growth (OD600 ≈ 0.6. OD, optical density). After dilution, the test strains were adjusted to 10^5 to 10^6 CFU bacteria per ml in phosphate-buffered saline solution (pH 7.2). The five concentrations of the peptides were added to 200 μl of the bacterial suspension and then incubated at 37°C for 3 h before CFU numbers were determined. Phosphate buffer served as the negative control. The cells were serially diluted in the same buffer, plated on Luria broth plates, and then incubated for 18 h at 37°C before the resulting colonies were counted. The bactericidal activity was expressed as the ratio of colonies counted to the number of colonies on a control plate. The 90% lethal concentration (LD90) is the concentration of the peptide at which 90% of viable cells are killed.
(§4) For the salt resistance assay, NaCl was included in the incubation buffer (1% MH or LB) over a range of concentrations (0, 50, 100, 150, and 200 mM NaCl) potentially present in the airway surface fluid of healthy subjects and patients with cystic fibrosis. For E. coli clinical isolates, the NaCl concentrations were increased to 0, 50, 100, 150, 200, 250, and 300 mM. The peptide concentration used in the salt dependence assay was 10 μg/ml, except for the 30 μg/ml concentration used against K. pneumonia ATCC 700603. Each assay was performed in triplicate. Bactericidal activity (the mean and standard deviation of three assays) was expressed as the ratio between the number of colonies counted and the number of colonies on a control plate.

Vero cells = test system: Vero cells
Procedure: Vero cells suspended in Dulbecco’s modified Eagle’s medium (DMEM)-high glucose culture medium supplemented with 10% (vol/vol) fetal calf serum and 1% (vol/vol) penicillin—streptomycin were seeded on a 96-well microtiter plate at a density of 1×10^4 cells per well. After incubation overnight at 37°C under 5% CO2 in a humidified atmosphere, the cells were washed twice with buffer (pH 7.4) containing 20 mM HEPES and 150 mM NaCl. Defensins were diluted in the same wash buffer, and 200 μl was added per well. The buffer was discarded after 2 h of incubation at 37°C under 5% CO2. Subsequently, 200 μl of DMEM and 50 μl of 3-(4,5-dimethylthiazol-2-yl)-2,5-diphenyltetrazolium bromide (MTT, 5 mg/ml) were added. DMEM (100%) and MTT were discarded, and 200 μl of DMSO was added in the plate after 6 h of incubation at 37°C under 5% CO2. The absorbance was measured at 490 nm with a microtiter plate reader.

E. faecium ATCC 19434 = type: cell-based, Enterococcus faecium; conditions: 10^5-10^6 CFU/ml in PBS pH 7.2, 3 h at 37°C, colony count, mean ± SD of three
Description: as §1, §2

E. faecium ATCC 6057 = type: cell-based, Enterococcus faecium; conditions: 10^5-10^6 CFU/ml in PBS pH 7.2, 3 h at 37°C, colony count, mean ± SD of three
Description: as §1, §2

P. Aeruginosa ATCC 15442 = type: cell-based, Pseudomonas aeruginosa; conditions: 10^5-10^6 CFU/ml in PBS pH 7.2, 3 h at 37°C, colony count, mean ± SD of three
Description: as §1, §2

E. faecalis ATCC 29212 = type: cell-based, Enterococcus faecalis; conditions: 10^5-10^6 CFU/ml in PBS pH 7.2, 3 h at 37°C, colony count, mean ± SD of three
Description: as §1, §2

[3] = test system: fifteen E. coli clinical isolates; experiment: Salt resistance assay against clinical isolates; type: cell-based, Escherichia coli; conditions: of 15 E. coli clinical isolates, peptide 10 μg/ml
Description: as §1, §3, §4

E. coli ATCC 25922 = type: cell-based, Escherichia coli; conditions: 10^5-10^6 CFU/ml in PBS pH 7.2, 3 h at 37°C, colony count, mean ± SD of three
Description: as §1, §2

Row | Molecule | LD90 (Mean ± SD) (K. pneumonia ATCC 700603) | LD90 (Mean ± SD) (S. flexneri CICC 21534) | LD90 (Mean ± SD) (S. aureus ATCC 29213) | LD90 (Mean ± SD) [1] | LD90 (Mean ± SD) (S. sonnei CICC 21535) | Effect of NaCl on antibacterial activity ([2]; 50 mM NaCl, all the tested strains, except for E. coli) | Effect of NaCl on antibacterial activity ([2]; 200 mM NaCl versus 0 mM NaCl, P < 0.01) | Concentration from which cytotoxicity starts (Vero cells) | LD90 (Mean ± SD) (E. faecium ATCC 19434) | LD90 (Mean ± SD) (E. faecium ATCC 6057) | LD90 (Mean ± SD) (P. Aeruginosa ATCC 15442) | LD90 (Mean ± SD) (E. faecalis ATCC 29212) | Number of isolates in which 50% or more activity was retained ([3]; 200 mM NaCl) | LD90 (Mean ± SD) (E. coli ATCC 25922) | Effect of NaCl on antibacterial activity ([2]; 100 mM NaCl, all the tested strains, except for S. aureus) | Number of isolates in which 50% or more activity was retained ([3]; 250 mM NaCl) | Number of isolates in which 50% or more activity was retained ([3]; 300 mM NaCl)
1 | CC[C@H](C)[C@H](NC(=O)[C@H](CCC(N)=O)NC(=O)[C@H](CCC(=O)O)NC(=O)[C@H](CCC(=O)O)NC(=O)[C@H](CCCCN)NC(=O)[C@@H]1CCCN1C(=O)[C@H](CC(C)C)NC(=O)[C@H](CS)NC(=O)[C@H](CO)NC(=O)[C@H](CC(C)C)NC(=O)[C@@H](NC(=O)[C@H](C)NC(=O)[C@H](CS)NC(=O)[C@H](CCCNC(=N)N)NC(=O)CNC(=O)CNC(=O)[C@H](CCCNC(=N)N)NC(=O)[C@@H](NC(=O)[C@H](CCCNC(=N)N)NC(=O)[C@H](CS)NC(=O)[C@@H](N)Cc1ccc(O)cc1)C(C)C)C(C)C)C(=O)NCC(=O)N[C@@H](CCCCN)C(=O)N[C@@H](CS)C(=O)N[C@@H](CO)C(=O)N[C@H](C(=O)N[C@@H](CCCNC(=N)N)C(=O)NCC(=O)N[C@@H](CCCNC(=N)N)C(=O)N[C@@H](CCCCN)C(=O)N[C@@H](CS)C(=O)N[C@@H](CS)C(=O)N[C@@H](CCCNC(=N)N)C(=O)N[C@@H](CCCNC(=N)N)C(=O)N[C@@H](CCCCN)C(=O)N[C@@H](CCCCN)C(=O)O)[C@@H](C)O [hBD-3Δ10] (H-YCRVRGGRCAVLSCLPKEEQIGKCSTRGRKCCRRKK-OH; N-terminus and C-terminus assumed) | more than 100 μg/ml |  |  |  |  |  |  |  |  |  |  |  |  |  |  |  | 
2 | GIINTLQKYYCRVRGGRCAVLSCLPKEEQIGKCSTRGRKCCRRKK (cysteines drawn unpaired) [hBD-3, human beta-defensin 3] | 18.6 ± 2.8 µg/mL | 3.7 ± 0.2 µg/mL | 4.0 ± 0.8 µg/mL | 3.5 ± 1.2 µg/mL | 4.0 ± 0.7 µg/mL | not or slightly inhibited | greatly inhibited | higher than 20 μg/ml | 2.3 ± 0.5 µg/mL | 1.6 ± 0.4 µg/mL | 6.8 ± 0.9 µg/mL | 2.4 ± 1.0 µg/mL | two | 8.0 ± 1.2 µg/mL |  |  | 
3 | NTLQKYYCRVRGGRCAVLSCLPKEEQIGKCSTRGRKCCRRKK (cysteines drawn unpaired) [hBD-3Δ4] |  |  |  |  |  |  |  |  |  |  |  |  | 14 isolates |  | almost the same antimicrobial activity as it would have in the absence of NaCl | 8 isolates | 5 isolates

From publication PMC4338079, “N-Terminus Three Residues Deletion Mutant of Human Beta-Defensin 3 with Remarkably Enhanced Salt-Resistance” (PLoS ONE, 2015)
